The text below walks through data of patent US20170135979A1, “PDE-DELTA INHIBITOR FOR THE TREATMENT OF CANCER” (Macau University of Science and Technology, priority 2015, published 2017).

For test [1], the system named is active (GTP-bound) K-RAS in A549 cells. The experiment in a line: K-RAS activation (GTP pull down) assay with immunoblotting. Type of test: cell-based. As to the method: Further, a K-RAS activation assay with subsequent immunoblotting has been carried out. […] Cells were lysed in lysis buffer, adjusted the volume of each sample to 1 mL with 1× Assay Lysis Buffer, 40 μL of the Raf1 RBD Agarose bead slurry were added to each sample quickly, follow by incubating the tubes at 4° C. for 1 hour with gentle agitation, beads were washed three times with cold lysis buffer, and bounded protein was resuspended in 40 μL of 2× reducing SDS-PAGE sample buffer and heated at 100° C. for 5 min. The samples were then run by SDS-PAGE followed by immunoblotting. Total amount of RAS being pulled down were compared between the control and treatment groups.
The compound of Formula (VII) inhibited K-RAS binding to GTP in A549 cells.
(In general: In western blotting, separated proteins are transferred to a membrane and probed.)

Test [2] relates to A549 cells. The experiment in a line: Colony formation assay. Type of test: cell-based. Conditions: 10 days. As to the method: Still further, the inhibitory effect of the compound of Formula (VII) on the colony formation in A549 cells has been analyzed to provide further evidence that the compound of Formula (VII) inhibits the formation of colonies of cancerous cells to an exceptional degree, too. A549 cells were seeded on a six-well plate at a density of 500 cells per well. […] After 10 days, the colonies were fixed with 4% paraformaldehyde and stained with a 0.5% (0.5% w/v) crystal violet solutions, the number of colonies >50 was counted under a dissecting microscope.

Test [3] concerns A549 cells. Description: Annexin V-FITC/PI apoptosis assay by flow cytometry. Type of test: cell-based. Particulars: A549, 2.5 μM, 5 μM or 10 μM, 48 h, compared with control group. As to the method:
Apoptosis was measured using the Annexin V-FITC apoptosis detection kit (BD Biosciences, San Jose, Calif., USA), according to the manufacturer protocol. […] Subsequently, cells were trypsinized, washed with PBS and stained with 100 μL binding buffer containing 2 μL Annexin-V FITC and 5 μL propidine iodide (PI) incubated in the dark at room temperature for 15 min, before further addition of 400 μL of 1× Annexin-binding buffer. The stained cells were analyzed quantitatively using a Flow Cytometer (BD Biosciences, San Jose, Calif., USA). Data were analyzed by Flow Jo software.
For orientation: Flow cytometry measures light scatter and fluorescence of single cells or particles in a stream.

The subject of a further test is H2122 (K-RAS G12C) cells. The experiment in a line: MTT cell viability assay, 72 h. Type of test: cell-based. Particulars: Homo sapiens, NCI-H2122. As to the method:
(§1) A549 (K-RAS^G12S), H358 (K-RAS^G12C), H2122 (K-RAS^G12C) and CCD19-Lu cells were obtained from the American Type Culture Collection and cultured in an environment of 5% CO2 at 37° C. in RPMI-1640 medium supplemented with 10% fetal bovine serum (FBS), 100 units/mL penicillin, and 100 μg/mL streptomycin.
(§2) 3000 cells were seeded on 96-well plates, cultured overnight for cell adhesion, then treated with DMSO or various concentrations of compound of Formula (VII) for 72 h, at the end of the incubation, each well was added with 10 μL of MTT (5 mg/mL; Sigma), and the plates were incubated for an additional 4 h, then the crystals were dissolved in 100 μL of the resolved solution (10% SDS and 0.1 mM HCL). The absorbance at 570 nm was measured using a microplate reader (Tecan, Morrisville, N.C., USA). The cell viability was calculated relative to untreated controls, with results based on at least three independent experiments. […] The IC50 in CCD19-Lu is more than 20 μM (Table 1).

For a further test, the system named is A549 (K-RAS G12S) cells. The experiment in a line: MTT cell viability assay, 72 h. Type of test: cell-based. Particulars: Homo sapiens. The protocol: as §1, §2
In general terms: Tetrazolium assays rely on reduction of a dye to a coloured formazan, in cell work by metabolically active cells.

For test [4], the system named is normal lung epithelial cells (CCD19-Lu). Description: MTT cell viability assay, 72 h. Type of test: cell-based. Particulars: Homo sapiens, CCD 19Lu. As to the method:
as §1, §2

A further test has as its system H358 (K-RAS G12C) cells. The experiment in a line: MTT cell viability assay, 72 h. Type of test: cell-based. Conditions: Homo sapiens, NCI-H358. The protocol: as §1, §2
The test system of test [5] is p-C-raf, pErk, pAkt in A549 cells. The experiment in a line: Western blot of signaling pathways downstream to K-RAS. Type of test: cell-based. Conditions: A549, 2.5 μM, 5 μM and 10 μM, compared with untreated cells. The protocol: Equal amounts of protein (20-40 μg per lane) were separated with a 10% SDS-PAGE gel, then the separated proteins were transferred to a Nitrocellulose (NC) membrane, which was then exposed to 5% non-fat dry milk in TBS containing 0.1% Tween 20 (0.1% TBST) for 1 hour at room temperature with constant agitation, followed by overnight incubation at 4° C. with primary antibodies, after washing three times by TBST, the membranes were incubated with secondary rabbit or mouse fluorescent antibodies, the signal intensity of the membranes was detected by anLI-COR Odessy scanner (Belfast, Me., USA). All primary antibodies were diluted 1:1000, while their recommended secondary antibodies were diluted 1:10000.

Test [6] concerns human pancreatic ductal adenocarcinoma cells. Particulars: in vitro and in vivo; cited from earlier work.

A word on the IC50: it is the point on the concentration scale where inhibition reaches its midpoint. Lower therefore signals inhibition by little substance. `CC(C)(C)c1cc2oc3c(c2c(/C=N/NC(=O)c2ccc(O)cc2O)c1O)CCCC3` [compound of Formula (VII)]: the “amount of K-RAS being pulled down (GTP-bound K-RAS)” value in test [1] (A549, 10 μM, 48 h, compared to untreated control) is recorded as “caused a decrease”. In the test on A549 cells [2] (A549, 1.25 μM, 2.5 μM, 5 μM or 10 μM), the colony formation capacity entry was “significantly inhibited”. Further, the colonies formed result in the test on A549 cells [2] (A549, 10 μM) is listed as “no visible colonies”. Besides, the cell apoptosis result with A549 cells [3] was “induced significant cell apoptosis”. For the same molecule, the IC50 with H2122 (K-RAS G12C) cells is 3.35 ± 2.74 µM; in the test with A549 (K-RAS G12S) cells, 5.59 ± 1.27 µM; in test [4], greater than 20 µM; in the test with H358 (K-RAS G12C) cells it was 2400 ± 2100 nM. Moreover, in test [5], the “level of p-C-raf” value is reported as “decreased”. In addition, the “level of pAkt” value in [5] was “decreased”. Moreover, the “level of pErk” value in [5] is given as “decreased”.

With `c1ccc(Cn2c(-c3ccc(OC[C@H](C4CCNCC4)n4c(-c5ccccc5)nc5ccccc54)cc3)nc3ccccc32)cc1` [Deltarasin, reference compound], the “GTP binding with K-RAS” value in [1] (A549, 4 μM, positive control) is “suppression”. Moreover, the “proliferation of human pancreatic ductal adenocarcinoma cells” value in [6] is listed as “strongly suppressed”.
